Results from patent publication US20070123699A1, “Peptide conjugate useful for cell nucleus molecular imaging and tumor therapy” (priority 2002, published 2007).

Assays:
[1] = i.v. administered alkylating drug, brain tumor; cited from earlier work
[2] = test system: DU-145 prostate cancer cells; test: MRI: DU-145 cell uptake and efflux of Gd^3+ conjugates (T1-weighted signal, relaxivity); format: cell-based, human
Description: (I) MRI: DU-145 Cell Uptake of the CNN—Gd^3+-Complex and CNRN—Gd^3+-Complex Compared to that of Magnevist®
DU-145 cells were harvested and divided into tubes (Falcon®, Becton Dickinson USA, Cat. No.: 35.2096) (Cell No.: 40×10^6 cells per tube). The CNN—Gd^3+-complex (Table 1, #1552a), the CNRN—Gd^3+-complex (Table 1, #1552b) and the Magnevist® were each dissolved in MEM in a concentration of 0.5 mM and were then incubated for 10, 20, 30 minutes up to 3 hours. […]
MR imaging used a 1.5-T whole body Siemens Magnetom Vision Plus with a standard circular polarized head coil. […] T1 and T2 relaxation-times within the pellets of the three tubes (CNN—Gd^3+, CNRN—Gd^3+, Magnevist) were measured to evaluate the intracellular relaxivity of the respective contrast agents (R=1/T1). The T1-relaxation time was measured by means of an inversion-recovery-sequence (TR: 5000 ms/TE: 76 ms/TI: 25-4000 ms, 17 different TI-values, scan-time 15×25 sec, FOV: 160 mm×160 mm, Matrix: 132×256, slice thickness: 7 mm, pixel size: 1.21×0.63 mm). T2 relaxation-time was measured by a multi-echo-sequence (TR: 5000 ms/16 TE-values: 30 ms-245 ms, FOV: 250 mm×250 mm, Matrix: 256×256, slice thickness: 5 mm, pixel size: 0.98×0.98 mm, scan time: 21 min 21 sec). […]

SMILES | fraction of drug in the blood passing the blood-brain barrier [1] | MRI signal change above that of DU-145 cells incubated solely in MEM ([2]; DU-145 cells, 0.5 mM, T1-weighted MRI) | relaxivity R (R=1/T1) within the DU-145 cell pellets ([2]; after incubation with contrast agent 0.5 mM)
Cn1nnc2c(C(N)=O)ncn2c1=O [Temodal] | about 30% |  | 
CNC[C@H](O)[C@@H](O)[C@H](O)[C@H](O)CO.CNC[C@H](O)[C@@H](O)[C@H](O)[C@H](O)CO.O=C([O-])CN(CCN(CC(=O)[O-])CC(=O)O)CCN(CC(=O)[O-])CC(=O)O.[Gd+3] [Magnevist, reference compound] |  | no signal change | 0.00069
